Reference: article PMC8474119, “Discovery and SAR Evolution of Pyrazole Azabicyclo[3.2.1]octane Sulfonamides as a Novel Class of Non-Covalent N-Acylethanolamine-Hydrolyzing Acid Amidase (NAAA) Inhibitors for Oral Administration” (Journal of Medicinal Chemistry, 2021)
“And” between values parts separate entries of the source, which are not always exact repeats. Equal values may be shown once.

Biological target: T1, h-NAAA (Homo sapiens, UniProt Q02083)
T1 construct: made in house; host or cells: HEK-293 cells stably overexpressing human NAAA; enzyme-enriched (lysosomal) lysate
T1 sequence (Q02083 29-125 limits assumed): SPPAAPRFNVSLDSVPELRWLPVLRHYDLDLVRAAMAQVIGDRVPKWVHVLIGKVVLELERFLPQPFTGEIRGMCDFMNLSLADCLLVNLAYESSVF
T1 sequence (Q02083 126-359 limits assumed): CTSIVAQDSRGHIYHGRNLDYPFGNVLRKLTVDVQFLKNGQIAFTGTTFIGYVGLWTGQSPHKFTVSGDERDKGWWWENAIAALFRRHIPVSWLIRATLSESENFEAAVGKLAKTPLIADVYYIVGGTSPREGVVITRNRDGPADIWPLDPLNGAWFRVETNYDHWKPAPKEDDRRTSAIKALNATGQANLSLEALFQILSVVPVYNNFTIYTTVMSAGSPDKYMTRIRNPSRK
Assay: Fluorogenic human-NAAA assay (h-NAAA, fluo.)
Format: biochemical
Details: for h-NAAA inhibitory activity, in words / IC50 / pIC50: h-NAAA (fluo.); for IC50: mean ± SD (n ≥ 3), n.a.: not active @50 μM (<10% inhibition); for LipE: LipE = pIC50 – c Log P (h-NAAA); for pIC50: Table S1
Protocol: Human recombinant proteins were obtained from HEK-293 stable overexpressing human NAAA, AC, and FAAH-1 cell lines, respectively. Cells were grown in Dulbecco’s modified Eagle medium (DMEM) containing 10% FBS, 1% glutamine, 1 mM sodium pyruvate, and 500 μg/mL geneticin (G418). To obtain a high-density cell proliferation, h-NAAA-HEK-293 cells were grown in BelloCell-500 bottle, a compact bioreactor. On the contrary, h-AC and h-FAAH-1-HEK-293 cells were grown in 150 mm dishes and scraped off with cold PBS 1× pH 7.4 at 80% confluence. Cell pellets were collected and stored at −80 °C until protein preparation.
HEK-293 cells stably transfected with the human NAAA or human AC coding sequences were used as the enzyme source. Cells were suspended in 20 mM Tris-HCl (pH 7.4) with 0.32 M sucrose, sonicated, and centrifuged at 800g for 30 min at 4 °C. Supernatants were then centrifuged at 12,000g for 30 min at 4 °C. Pellets were resuspended in PBS buffer (pH 7.4) and subjected to three freeze-thaw cycles at −80 °C. The suspension was finally centrifuged at 105,000g for 1 h at 4 °C, supernatants were collected, protein concentration was measured, and samples were aliquoted and stored at −80 °C until use.
The assay was run in 96-well microplates (Black OptiPlate-96 F; PerkinElmer, Massachusetts, USA), in a total reaction volume of 200 μL. h-NAAA protein preparation (4 μg) was preincubated for 30 min with various concentrations of test compounds or vehicle control (DMSO 5%) in 100 mM citrate/phosphate buffer (pH 4.5) containing 3.0 mM DTT, 0.1% NP40, 0.05% BSA, and 150 mM NaCl. The background (no activity) samples were prepared using assay buffer without h-NAAA and DMSO (5%). N-(4-methyl-2-oxo-chromen-7-yl)-hexadecanamide (PAMCA)[60] was used as a substrate (2 μM) and the reaction was carried out for 50 min at 37 °C. Fluorescence was measured with EnVision 2014 Multilabel Reader (PerkinElmer, Massachusetts, USA) using an excitation wavelength of 355 nm and an emission of 460 nm. IC50 values were calculated by non-linear regression analysis of log[concentration]/response curves generated with mean replicate values using a four-parameter Hill equation curve fitting with GraphPad Prism 5 (GraphPad Software Inc., CA, USA).

Row | SMILES | h-NAAA inhibitory activity, in words | IC50 | also measured
1 | Cc1n[nH]cc1S(=O)(=O)N1CCC(Oc2cnccn2)CC1 [Compound 2, 2-((1-((3-Methyl-1H-pyrazol-4-yl)sulfonyl)piperidin-4-yl)oxy)pyrazine] | devoid of any activity |  | 
2 | Cc1n[nH]c(C)c1S(=O)(=O)N1C[C@H]2CC[C@@H](C1)[C@H]2Oc1cnccn1 [Compound 27, (1R,5S,8r)-3-((3,5-Dimethyl-1H-pyrazol-4-yl)sulfonyl)-8-(pyrazin-2-yloxy)-3-azabicyclo[3.2.1]octane] |  | 15.4 ± 3.26 µM | 
3 | Cc1n[nH]c(C)c1S(=O)(=O)N1CCC(Oc2cnccn2)CC1 [Compound 1, 2-((1-((3,5-Dimethyl-1H-pyrazol-4-yl)sulfonyl)piperidin-4-yl)oxy)pyrazine] |  | 1.09 ± 0.163 µM | LipE: 6.3; pIC50: 5.96
4 | Cc1n[nH]c(C)c1S(=O)(=O)N1CCC(c2cnccn2)CC1 [Compound 24, 2-(1-((3,5-Dimethyl-1H-pyrazol-4-yl)sulfonyl)piperidin-4-yl)pyrazine] | abolished the inhibitory activity |  | 
5 | Cc1n[nH]c(C)c1S(=O)(=O)N1[C@@H]2CC[C@H]1C[C@@H](Oc1ccc(C#N)cc1)C2 [Compound 45] |  | 0.757 ± 0.08 µM | 
6 | CCCCCCc1ccc(O[C@H]2C[C@H]3CC[C@@H](C2)N3S(=O)(=O)c2c(C)n[nH]c2C)cc1 [Compound 41, (1R,3r,5S)-8-((3,5-Dimethyl-1H-pyrazol-4-yl)sulfonyl)-3-(4-hexylphenoxy)-8-azabicyclo[3.2.1]octane] |  | 0.019 ± 0.001 µM | 
7 | Cc1n[nH]c(C)c1S(=O)(=O)N1[C@@H]2CC[C@H]1C[C@@H](Oc1ccccc1)C2 [Compound 31, (1R,3r,5S)-8-((3,5-Dimethyl-1H-pyrazol-4-yl)sulfonyl)-3-phenoxy-8-azabicyclo[3.2.1]octane] |  | 0.093 ± 0.02 µM | 
8 | Cc1n[nH]c(C)c1S(=O)(=O)N1CCC(Nc2cnccn2)CC1 [Compound 22, N-(1-((3,5-Dimethyl-1H-pyrazol-4-yl)sulfonyl)piperidin-4-yl)pyrazin-2-amine] | abolished the inhibitory activity |  | 
9 | O=S(=O)(c1cn[nH]c1)N1CCC(Oc2cnccn2)CC1 [Compound 3, 2-((1-((1H-Pyrazol-4-yl)sulfonyl)piperidin-4-yl)oxy)pyrazine] | devoid of any activity |  | 
10 | Cc1[nH]nc(C(F)(F)F)c1S(=O)(=O)N1CCC(Oc2cnccn2)CC1 [Compound 14, 2-((1-((5-Methyl-3-(trifluoromethyl)-1H-pyrazol-4-yl)sulfonyl)piperidin-4-yl)oxy)pyrazine] |  | 3.29 ± 0.23 µM | 
11 | Cc1cccc(C)c1S(=O)(=O)N1CCC(Oc2cnccn2)CC1 [Compound 7, 2-((1-((2,6-Dimethylphenyl)sulfonyl)piperidin-4-yl)oxy)pyrazine] |  | 4.48 ± 0.94 µM | 
12 | Cc1n[nH]c(C)c1S(=O)(=O)N1[C@@H]2CC[C@H]1C[C@@H](Oc1ccc(C(F)(F)F)cc1)C2 [Compound 43, (1R,3r,5S)-8-((3,5-Dimethyl-1H-pyrazol-4-yl)sulfonyl)-3-(4-(trifluoromethyl)phenoxy)-8-azabicyclo[3.2.1]octane] |  | 0.212 ± 0.02 µM | 
13 | Cc1n[nH]c(C)c1S(=O)(=O)N(C)CCCOc1cnccn1 [Compound 19, N,3,5-Trimethyl-N-(3-(pyrazin-2-yloxy)propyl)-1H-pyrazole-4-Sulfonamide] |  | 4.29 ± 0.97 µM | 
14 | COc1n[nH]c(C)c1S(=O)(=O)N1CCC(Oc2cnccn2)CC1 [Compound 13, 2-((1-((3-Methoxy-5-methyl-1H-pyrazol-4-yl)sulfonyl)piperidin-4-yl)oxy)pyrazine] | no detectable activity |  | 
15 | Cc1n[nH]c(C)c1S(=O)(=O)N1CC(Oc2cnccn2)C1 [Compound 18, 2-((1-((3,5-Dimethyl-1H-pyrazol-4-yl)sulfonyl)azetidin-3-yl)oxy)pyrazine] | complete loss of enzyme inhibition |  | 
16 | Cc1noc(C)c1S(=O)(=O)N1CCC(Oc2cnccn2)CC1 [Compound 5, 3,5-Dimethyl-4-((4-(pyrazin-2-yloxy)piperidin-1-yl)sulfonyl)isoxazole] | complete loss of inhibitory effect |  | 
17 | CCCOc1ccc(O[C@H]2C[C@H]3CC[C@@H](C2)N3S(=O)(=O)c2c(C)n[nH]c2C)cc1 [Compound 47, (1R,3r,5S)-8-((3,5-Dimethyl-1H-pyrazol-4-yl)sulfonyl)-3-(4-propoxyphenoxy)-8-azabicyclo[3.2.1]octane] |  | 0.45 ± 0.07 µM | LipE: 3.55; pIC50: 6.35
18 | CCc1ccc(O[C@H]2C[C@H]3CC[C@@H](C2)N3S(=O)(=O)c2c(C)n[nH]c2C)cc1 [Compound 37, (1R,3r,5S)-8-((3,5-Dimethyl-1H-pyrazol-4-yl)sulfonyl)-3-(4-ethylphenoxy)-8-azabicyclo[3.2.1]octane] |  | 0.051 ± 0.005 µM | 
19 | Cc1n[nH]c(C)c1S(=O)(=O)N1[C@@H]2CC[C@H]1C[C@H](Oc1cnccn1)C2 [Compound 21, (1R,3s,5S)-8-((3,5-Dimethyl-1H-pyrazol-4-yl)sulfonyl)-3-(pyrazin-2-yloxy)-8-azabicyclo[3.2.1]octane] | devoid of any activity |  | 
20 | Cc1n[nH]c(C)c1S(=O)(=O)N1[C@@H]2CC[C@H]1C[C@@H](Oc1ccc(F)cc1)C2 [Compound 46, (1R,3r,5S)-8-((3,5-Dimethyl-1H-pyrazol-4-yl)sulfonyl)-3-(4-fluorophenoxy)-8-azabicyclo[3.2.1]octane] |  | 0.143 ± 0.007 µM | 
21 | Cc1n[nH]c(C)c1S(=O)(=O)N1[C@@H]2CC[C@H]1C[C@@H](Oc1ccc(C(C)C)cc1)C2 [Compound 38, (1R,3r,5S)-8-((3,5-Dimethyl-1H-pyrazol-4-yl)sulfonyl)-3-(4-isopropylphenoxy)-8-azabicyclo[3.2.1]octane] |  | 0.744 ± 0.09 µM | 
22 | CCc1n[nH]c(C)c1S(=O)(=O)N1CCC(Oc2cnccn2)CC1 [Compound 8, 2-((1-((3-Ethyl-5-methyl-1H-pyrazol-4-yl)sulfonyl)piperidin-4-yl)oxy)pyrazine] |  | 0.62 ± 0.12 µM | 
23 | Cc1cnn(C)c1S(=O)(=O)N1CCC(Oc2cnccn2)CC1 [Compound 6, 2-((1-((1,4-Dimethyl-1H-pyrazol-5-yl)sulfonyl)piperidin-4-yl)oxy)pyrazine] | complete loss of inhibitory effect |  | 
24 | Cc1n[nH]c(C)c1S(=O)(=O)N1[C@@H]2CCC[C@H]1C[C@@H](Oc1cnccn1)C2 [Compound 25, (1R,3r,5S)-9-((3,5-Dimethyl-1H-pyrazol-4-yl)sulfonyl)-3-(pyrazin-2-yloxy)-9-azabicyclo[3.3.1]nonane] |  | 0.37 ± 0.03 µM | 
25 | Cc1n[nH]c(C)c1S(=O)(=O)N1[C@@H]2CC[C@H]1C[C@@H](Oc1cnccn1)C2 [Compound 20, (1R,3r,5S)-8-((3,5-Dimethyl-1H-pyrazol-4-yl)sulfonyl)-3-(pyrazin-2-yloxy)-8-azabicyclo[3.2.1]octane] |  | 0.23 ± 0.01 µM | 
26 | Cc1ccccc1O[C@H]1C[C@H]2CC[C@@H](C1)N2S(=O)(=O)c1c(C)n[nH]c1C [Compound 36, (1R,3r,5S)-8-((3,5-Dimethyl-1H-pyrazol-4-yl)sulfonyl)-3-(o-tolyloxy)-8-azabicyclo[3.2.1]octane] |  | 0.291 ± 0.01 µM | 
27 | CCOCc1ccc(O[C@H]2C[C@H]3CC[C@@H](C2)N3S(=O)(=O)c2c(C)n[nH]c2C)cc1 [Compound 48, (1R,3r,5S)-8-((3,5-Dimethyl-1H-pyrazol-4-yl)sulfonyl)-3-(4-(ethoxymethyl)phenoxy)-8-azabicyclo[3.2.1]octane] |  | 0.016 ± 0.002 µM | LipE: 5.70; pIC50: 7.79
28 | Cc1n[nH]c(C)c1S(=O)(=O)N1[C@@H]2CC[C@H]1C[C@@H](Oc1ccccn1)C2 [Compound 30, (1R,3r,5S)-8-((3,5-Dimethyl-1H-pyrazol-4-yl)sulfonyl)-3-(pyridin-2-yloxy)-8-azabicyclo[3.2.1]octane] |  | 0.16 µM and 0.162 µM | 
29 | Cc1n[nH]c(C)c1C(=O)N1CCC(Oc2cnccn2)CC1 [Compound 16, (3,5-Dimethyl-1H-pyrazol-4-yl)(4-(pyrazin-2-yloxy)piperidin-1-yl)methanone] | complete loss of activity |  | 
